Source: ChEMBL document CHEMBL3885881, “DrugMatrix”

Species: Rattus norvegicus
Experiment: DrugMatrix - Regimen: Daily Repeat
Assay type: toxicity, organism-based, Sprague-Dawley
Design: regimen Daily Repeat, gender Male, age 6-8 weeks
Conditions: in vivo, sc, […], route mini-PUMP - SUBCUTANEOUS, dose 0.44 mg/Kg, dose level High, vehicle 100 % SALINE; for ABSOLUTE BASOPHIL / ABSOLUTE EOSINOPHIL / ABSOLUTE LYMPHOCYTE / ABSOLUTE MONOCYTE / ABSOLUTE SEGMENTED NEUTROPHIL / BASOPHIL / EOSINOPHIL / ERYTHROCYTE COUNT / HEMATOCRIT / HEMOGLOBIN / LEUKOCYTE COUNT / LYMPHOCYTE / MEAN CORPUSCULAR HEMOGLOBIN / MEAN CORPUSCULAR HEMOGLOBIN CONCENTRATION / MEAN CORPUSCULAR VOLUME / MONOCYTE / NEUTROPHIL / NUCLEATED RED BLOOD CELLS / PLATELET COUNT: tissue Blood; for ALANINE AMINOTRANSFERASE / ALBUMIN / ALKALINE PHOSPHATASE / ASPARTATE AMINOTRANSFERASE / BLOOD UREA NITROGEN / CARBON DIOXIDE / CHLORIDE / CHOLESTEROL / CREATININE / GLUCOSE / LACTATE DEHYDROGENASE / LIPASE / PHOSPHORUS / POTASSIUM / SODIUM / TOTAL BILIRUBIN / TOTAL PROTEIN / URIC ACID: tissue Plasma

## CNC[C@H](O)c1cccc(O)c1 [PHENYLEPHRINE]
72 h, time 3 day
  ABSOLUTE BASOPHIL: 0 CELLS/uL
  ABSOLUTE EOSINOPHIL: 55.67 CELLS/uL
  ABSOLUTE LYMPHOCYTE: 14419.33 CELLS/uL
  ABSOLUTE MONOCYTE: 594.67 CELLS/uL
  ABSOLUTE SEGMENTED NEUTROPHIL: 1063.67 CELLS/uL
  BASOPHIL: 0%
  EOSINOPHIL: 0.33%
  ERYTHROCYTE COUNT: 5.8 x10E6/uL
  HEMATOCRIT: 34.93%
  HEMOGLOBIN: 13 G/DL
  LEUKOCYTE COUNT: 16.13 x10E3/uL
  LYMPHOCYTE: 89.33%
  MEAN CORPUSCULAR HEMOGLOBIN: 22.43 pg
  MEAN CORPUSCULAR HEMOGLOBIN CONCENTRATION: 37.23 G/DL
  MEAN CORPUSCULAR VOLUME: 60.33 fL
  MONOCYTE: 3.67%
  NEUTROPHIL: 6.67%
  NUCLEATED RED BLOOD CELLS: 0.33 /100WBC
  PLATELET COUNT: 1250 x10E3/uL
  ALANINE AMINOTRANSFERASE: 43.33 u/L
  ALBUMIN: 3.87 G/DL
  ALKALINE PHOSPHATASE: 289 u/L
  ASPARTATE AMINOTRANSFERASE: 78.67 u/L
  BLOOD UREA NITROGEN: 16 mg/dL
  CARBON DIOXIDE: 25.67 mmol/L
  CHLORIDE: 102.67 MEQ/L
  CHOLESTEROL: 76 mg/dL
  CREATININE: 0.16 mg/dL
  GLUCOSE: 149 mg/dL
  LACTATE DEHYDROGENASE: 363 u/L
  LIPASE: 9.33 u/L
  PHOSPHORUS: 13.17 mg/dL
  POTASSIUM: 6.76 MEQ/L
  SODIUM: 148.13 MEQ/L
  TOTAL BILIRUBIN: 0.17 mg/dL
  TOTAL PROTEIN: 6.13 G/DL
  URIC ACID: 1.83 mg/dL
120 h, time 5 day
  ABSOLUTE BASOPHIL: 0 CELLS/uL
  ABSOLUTE EOSINOPHIL: 45.67 CELLS/uL
  ABSOLUTE LYMPHOCYTE: 14706.67 CELLS/uL
  ABSOLUTE MONOCYTE: 166.33 CELLS/uL
  ABSOLUTE SEGMENTED NEUTROPHIL: 1714.67 CELLS/uL
  BASOPHIL: 0%
  EOSINOPHIL: 0.33%
  ERYTHROCYTE COUNT: 6.03 x10E6/uL
  HEMATOCRIT: 35.63%
  HEMOGLOBIN: 13.2 G/DL
  LEUKOCYTE COUNT: 16.63 x10E3/uL
  LYMPHOCYTE: 88.33%
  MEAN CORPUSCULAR HEMOGLOBIN: 21.9 pg
  MEAN CORPUSCULAR HEMOGLOBIN CONCENTRATION: 37.03 G/DL
  MEAN CORPUSCULAR VOLUME: 59.07 fL
  MONOCYTE: 1%
  NEUTROPHIL: 10.33%
  NUCLEATED RED BLOOD CELLS: 0 /100WBC
  PLATELET COUNT: 1498.33 x10E3/uL
  ALANINE AMINOTRANSFERASE: 48.33 u/L
  ALBUMIN: 3.97 G/DL
  ALKALINE PHOSPHATASE: 321.67 u/L
  ASPARTATE AMINOTRANSFERASE: 89.67 u/L
  BLOOD UREA NITROGEN: 14 mg/dL
  CARBON DIOXIDE: 27.67 mmol/L
  CHLORIDE: 103.33 MEQ/L
  CHOLESTEROL: 71 mg/dL
  CREATININE: 0.15 mg/dL
  GLUCOSE: 166 mg/dL
  LACTATE DEHYDROGENASE: 145.33 u/L
  LIPASE: 9 u/L
  PHOSPHORUS: 12.6 mg/dL
  POTASSIUM: 6.15 MEQ/L
  SODIUM: 148.6 MEQ/L
  TOTAL BILIRUBIN: 0.17 mg/dL
  TOTAL PROTEIN: 6.1 G/DL
  URIC ACID: 1.87 mg/dL
Time 14 day
  ABSOLUTE BASOPHIL: 0 CELLS/uL
  ABSOLUTE EOSINOPHIL: 155 CELLS/uL
  ABSOLUTE LYMPHOCYTE: 14503.4 CELLS/uL
  ABSOLUTE MONOCYTE: 573 CELLS/uL
  ABSOLUTE SEGMENTED NEUTROPHIL: 2768.6 CELLS/uL
  BASOPHIL: 0%
  EOSINOPHIL: 0.8%
  ERYTHROCYTE COUNT: 6.23 x10E6/uL
  HEMATOCRIT: 37.14%
  HEMOGLOBIN: 13.54 G/DL
  LEUKOCYTE COUNT: 18 x10E3/uL
  LYMPHOCYTE: 80.8%
  MEAN CORPUSCULAR HEMOGLOBIN: 21.72 pg
  MEAN CORPUSCULAR HEMOGLOBIN CONCENTRATION: 36.46 G/DL
  MEAN CORPUSCULAR VOLUME: 59.54 fL
  MONOCYTE: 3.2%
  NEUTROPHIL: 15.2%
  NUCLEATED RED BLOOD CELLS: 0 /100WBC
  PLATELET COUNT: 1175 x10E3/uL
  ALANINE AMINOTRANSFERASE: 43.6 u/L
  ALBUMIN: 4.1 G/DL
  ALKALINE PHOSPHATASE: 276.2 u/L
  ASPARTATE AMINOTRANSFERASE: 80 u/L
  BLOOD UREA NITROGEN: 19.6 mg/dL
  CARBON DIOXIDE: 29.4 mmol/L
  CHLORIDE: 100.6 MEQ/L
  CHOLESTEROL: 69.8 mg/dL
  CREATININE: 0.23 mg/dL
  GLUCOSE: 173.8 mg/dL
  LACTATE DEHYDROGENASE: 166.4 u/L
  LIPASE: 8.6 u/L
  PHOSPHORUS: 13.24 mg/dL
  POTASSIUM: 7.17 MEQ/L
  SODIUM: 144.9 MEQ/L
  TOTAL BILIRUBIN: 0.18 mg/dL
  TOTAL PROTEIN: 6.42 G/DL
  URIC ACID: 2.54 mg/dL
